Experiments:
Assay in all cases: MIC, broth microdilution (CLSI), substance alone or ATB combined with compound at 4 or 8 μg/mL
KPN UFR42 = type: cell-based, K. pneumoniae; conditions: KPN UFR42
In short: (§1)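 Growth inhibition endpoint, read visually after 16-20 h at 35° C in ambient air. Cation-adjusted Mueller-Hinton broth, inoculum 5·10^5 CFU/mL, CLSI M7-A7 protocol.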

KPN BAA-1898 = type: cell-based, K. pneumoniae; conditions: KPN BAA-1898
In short: as §1

KPN 6299 = type: cell-based, K. pneumoniae
In short: as §1

ECO UFR39 = type: cell-based, E. coli; conditions: ECO UFR39
In short: as §1

ECO 190317 = type: cell-based, E. coli; conditions: ECO 190317
In short: as §1

ECL P99 = type: cell-based, E. cloacae; conditions: ECL P99
In short: as §1

C[C@@H](O)[C@H]1C(=O)N2C(C(=O)O)=C(SCCN=CN)C[C@H]12 [IMI]
4 µg/mL: MIC ATB combined with Example 7 @8 μgml (KPN 6299; with Example 7 at 8 μg/ml)
64 µg/mL: MIC ATB alone (KPN BAA-1898; antibiotic alone)
<0.031 µg/mL: MIC ATB combined with Example 11 @8 μg/ml (KPN UFR42; with Example 11 at 8 μg/ml) | MIC ATB combined with Example 12 @8 μg/ml (KPN UFR42; with Example 12 at 8 μg/ml) | MIC ATB combined with Example 14 @8 μg/ml (KPN UFR42; with Example 14 at 8 μg/ml) | MIC ATB combined with Example 15 @4 μgml (KPN UFR42; with Example 15 at 4 μg/ml) | MIC ATB combined with Example 16 @4 μg/ml (KPN UFR42; with Example 16 at 4 μg/ml) | MIC ATB combined with Example 9 @4 μg/ml (KPN BAA-1898; with Example 9 @4 μg/ml) | MIC ATB combined with Example 9 @4 μg/ml (KPN BAA-1898; with Example 9 at 4 μg/ml) | MIC ATB combined with Example 11 @8 μg/ml (KPN BAA-1898; with Example 11 at 8 μg/ml) | MIC ATB combined with Example 12 @8 μg/ml (KPN BAA-1898; with Example 12 at 8 μg/ml) | MIC ATB combined with Example 14 @8 μg/ml (KPN BAA-1898; with Example 14 at 8 μg/ml) | MIC ATB combined with Example 15 @4 μgml (KPN BAA-1898; with Example 15 at 4 μg/ml) | MIC ATB combined with Example 16 @4 μg/ml (KPN BAA-1898; with Example 16 at 4 μg/ml) | MIC ATB combined with Example 9 @4 μg/ml (KPN 6299; with Example 9 @4 μg/ml) | MIC ATB combined with Example 9 @4 μg/ml (KPN 6299; with Example 9 at 4 μg/ml) | MIC ATB combined with Example 11 @8 μg/ml (KPN 6299; with Example 11 at 8 μg/ml) | MIC ATB combined with Example 12 @8 μg/ml (KPN 6299; with Example 12 at 8 μg/ml) | MIC ATB combined with Example 14 @8 μg/ml (KPN 6299; with Example 14 at 8 μg/ml) | MIC ATB combined with Example 15 @4 μgml (KPN 6299; with Example 15 at 4 μg/ml) | MIC ATB combined with Example 16 @4 μg/ml (KPN 6299; with Example 16 at 4 μg/ml) | MIC ATB combined with Example 1 @8 μg/ml (ECO UFR39; with Example 1 @8 μg/ml) | MIC ATB combined with Example 1 @8 μg/ml (ECO UFR39; with Example 1 at 8 μg/ml) | MIC ATB combined with Example 7 @8 μgml (ECO UFR39; with Example 7 at 8 μg/ml) | MIC ATB combined with Example 9 @4 μg/ml (ECO UFR39; with Example 9 @4 μg/ml) | MIC ATB combined with Example 9 @4 μg/ml (ECO UFR39; with Example 9 at 4 μg/ml) | MIC ATB combined with Example 11 @8 μg/ml (ECO UFR39; with Example 11 at 8 μg/ml) | MIC ATB combined with Example 12 @8 μg/ml (ECO UFR39; with Example 12 at 8 μg/ml) | MIC ATB combined with Example 13 @8 μg/ml (ECO UFR39; with Example 13 at 8 μg/ml) | MIC ATB combined with Example 14 @8 μg/ml (ECO UFR39; with Example 14 at 8 μg/ml) | MIC ATB combined with Example 15 @4 μgml (ECO UFR39; with Example 15 at 4 μg/ml) | MIC ATB combined with Example 16 @4 μg/ml (ECO UFR39; with Example 16 at 4 μg/ml) | MIC ATB combined with Example 1 @8 μg/ml (ECO 190317; with Example 1 @8 μg/ml) | MIC ATB combined with Example 1 @8 μg/ml (ECO 190317; with Example 1 at 8 μg/ml) | MIC ATB combined with Example 7 @8 μgml (ECO 190317; with Example 7 at 8 μg/ml) | MIC ATB combined with Example 9 @4 μg/ml (ECO 190317; with Example 9 @4 μg/ml) | MIC ATB combined with Example 9 @4 μg/ml (ECO 190317; with Example 9 at 4 μg/ml) | MIC ATB combined with Example 11 @8 μg/ml (ECO 190317; with Example 11 at 8 μg/ml) | MIC ATB combined with Example 12 @8 μg/ml (ECO 190317; with Example 12 at 8 μg/ml) | MIC ATB combined with Example 13 @8 μg/ml (ECO 190317; with Example 13 at 8 μg/ml) | MIC ATB combined with Example 14 @8 μg/ml (ECO 190317; with Example 14 at 8 μg/ml) | MIC ATB combined with Example 15 @4 μgml (ECO 190317; with Example 15 at 4 μg/ml) | MIC ATB combined with Example 16 @4 μg/ml (ECO 190317; with Example 16 at 4 μg/ml) | MIC ATB combined with Example 1 @8 μg/ml (ECL P99; with Example 1 @8 μg/ml) | MIC ATB combined with Example 1 @8 μg/ml (ECL P99; with Example 1 at 8 μg/ml) | MIC ATB combined with Example 9 @4 μg/ml (ECL P99; with Example 9 @4 μg/ml) | MIC ATB combined with Example 9 @4 μg/ml (ECL P99; with Example 9 at 4 μg/ml)
0.25 µg/mL: MIC ATB alone (KPN 6299; antibiotic alone) | MIC ATB alone (ECL P99; antibiotic alone)
16 µg/mL: MIC ATB combined with Example 7 @8 μgml (KPN BAA-1898; with Example 7 at 8 μg/ml) | MIC ATB alone (ECO UFR39; antibiotic alone)
0.125 µg/mL: MIC ATB alone (ECO 190317; antibiotic alone)
2 µg/mL: MIC ATB combined with Example 1 @8 μg/ml (KPN BAA-1898; with Example 1 @8 μg/ml) | MIC ATB combined with Example 1 @8 μg/ml (KPN BAA-1898; with Example 1 at 8 μg/ml)
>32 µg/mL: MIC ATB combined with Example 1 @8 μg/ml (KPN UFR42; with Example 1 @8 μg/ml) | MIC ATB combined with Example 1 @8 μg/ml (KPN UFR42; with Example 1 at 8 μg/ml) | MIC ATB combined with Example 7 @8 μgml (KPN UFR42; with Example 7 at 8 μg/ml) | MIC ATB combined with Example 13 @8 μg/ml (KPN UFR42; with Example 13 at 8 μg/ml)
32 µg/mL: MIC ATB alone (KPN UFR42; antibiotic alone) | MIC ATB combined with Example 9 @4 μg/ml (KPN UFR42; with Example 9 @4 μg/ml) | MIC ATB combined with Example 9 @4 μg/ml (KPN UFR42; with Example 9 at 4 μg/ml)
1 µg/mL: MIC ATB combined with Example 1 @8 μg/ml (KPN 6299; with Example 1 @8 μg/ml) | MIC ATB combined with Example 1 @8 μg/ml (KPN 6299; with Example 1 at 8 μg/ml) | MIC ATB combined with Example 13 @8 μg/ml (KPN 6299; with Example 13 at 8 μg/ml) | MIC ATB combined with Example 7 @8 μgml (ECL P99; with Example 7 at 8 μg/ml)
0.5 µg/mL: MIC ATB combined with Example 13 @8 μg/ml (KPN BAA-1898; with Example 13 at 8 μg/ml)

Reference: patent publication US20200024278A1, “COMPOSITION COMPRISING ANTIBIOTIC COMPOUND AND AN HETEROCYCLIC COMPOUND AND THEIR USE IN PREVENTING OR TREATING BACTERIAL INFECTIONS” (MUTABILIS, priority 2016, published 2020)
